Measured values taken from patent US6677313B1, “Method for gene therapy using nucleic acid loaded polymeric microparticles” (Brown University Research Foundation, priority 1995, dated 2004).

Experiment: in vivo
Details: rat, serum, po, 25 mg/kg
Experimental: Dicumarol containing microspheres were produced as described above in Example 2, subsection 1. Equal doses of dicumarol, spray dried dicumarol and polyanhydride (FA:SA) 20:80 encapsulated dicumarol (25 mg drug/kg body weight) suspended in 1.5 ml maple syrup were fed to catheterized rats (250-350 g). Blood samples were taken at regular intervals and serum was assayed for dicumarol concentrations using a UV spectrophotometric method.

AUC: 171 ± 33.2 µg·h/mL | Cmax: 11500 ± 1100 ng/mL | Tmax: 9.87 ± 1.76 h | half-life: 18.2 ± 3.3 h
SMILES: O=c1oc2ccccc2c(O)c1Cc1c(O)c2ccccc2oc1=O [STOCK DICUMAROL CONTROL, dicumarol]
